In PubChem BioAssay (NCI) one finds GI50 and TGI data, which are given here for seven compounds.

Among the test systems are CAKI-1 renal; HCT-116 colon; M14 melanoma; CCRF-CEM leukemia; SF-539 CNS; SF-295 CNS; UO-31 renal; OVCAR-5 ovarian; NCI-H460 lung; A498 renal.
Holding throughout (experiment): growth of human tumour cells (NCI), 48 h

Each structure is given as a SMILES string. “And” between values parts separate entries of the source, which are not always exact repeats. Identical values can stand only once.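 Growth conditions: 96-well plates. Treatment: test compound, 48 hours, 5 concentrations. Analysis: linear interpolation between bracketing concentrations; unreached endpoints set to highest concentration. GI50 = concentration required for 50% inhibition of growth. At the TGI there is no net growth.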 Where only a bound is given, the exact number is not on record here.

On to `CCSC[C@@H]1C[C@](O)(c2ccc(Cl)cc2)[C@@H](c2ccc(Cl)cc2)O1`, for which the GI50 in the test with CAKI-1 renal is 27.6 µM; with HCT-116 colon, 12.6 µM; in the test on M14 melanoma, 15.3 µM; in the test with CCRF-CEM leukemia, 20.5 µM; in the test on SF-539 CNS, 16.5 µM; in the test with SF-295 CNS, 18.9 µM. Moreover, the GI50 in the test on UO-31 renal was 16.5 µM; in the test on OVCAR-5 ovarian it was 18.2 µM; with NCI-H460 lung it was 17.3 µM; with A498 renal, 17.8 µM. The TGI with CAKI-1 renal was determined as 63.2 µM; with HCT-116 colon, 25.1 µM; with M14 melanoma, 29.6 µM; in the test with CCRF-CEM leukemia it was 59.4 µM; in the test on SF-539 CNS, 31.1 µM; in the test with SF-295 CNS, 35.4 µM. Besides, the TGI in the test on UO-31 renal is 30.4 µM; with OVCAR-5 ovarian, 34.3 µM; in the test with NCI-H460 lung it was 34.1 µM; in the test with A498 renal, 32.1 µM.

Regarding `CC(C)(C)OC(=O)C1C(=O)NC(=O)CC1CC(OCc1ccccc1)C(OCc1ccccc1)C(COCc1ccccc1)OCc1ccccc1` (centres undefined), the GI50 in the test with HCT-116 colon is 48.5 µM and 17 µM; with M14 melanoma it was 55.1 µM and 27.2 µM; with CCRF-CEM leukemia, 60.6 µM and 11.8 µM; in the test on SF-539 CNS it was > 100 µM and 36.6 µM; in the test on UO-31 renal, 11.1 µM and 4.48 µM; with NCI-H460 lung, 32.7 µM and 12.1 µM. Moreover, the TGI in the test with HCT-116 colon was above 100 µM; in the test on M14 melanoma it was above 100 µM; in the test with CCRF-CEM leukemia, above 100 µM; in the test with SF-539 CNS, above 100 µM; with SF-295 CNS it was above 100 µM; in the test with UO-31 renal, 24.8 µM and 16.2 µM. The TGI with OVCAR-5 ovarian, with NCI-H460 lung and in the test with A498 renal was above 100 µM in each case.

Take `Cc1c(Cn2c(C)nc3c(C(=O)O)cc(N4CCOCC4)cc32)cccc1C(F)(F)F`: the GI50 in the test on CAKI-1 renal was 7.44 µM; with HCT-116 colon, 42.1 µM; with M14 melanoma, 37.1 µM; with CCRF-CEM leukemia, 44.3 µM; with SF-539 CNS it was 72.6 µM; in the test with SF-295 CNS it was 11 µM. Moreover, the GI50 is 3.46 µM in the test on UO-31 renal, 81.7 µM in the test on OVCAR-5 ovarian, 40 µM in the test with NCI-H460 lung and 0.0339 µM in the test on A498 renal. The TGI in the test on CAKI-1 renal was above 100 µM; in the test on HCT-116 colon, above 100 µM; in the test with M14 melanoma it was above 100 µM; in the test with CCRF-CEM leukemia, above 100 µM; with SF-539 CNS, above 100 µM; in the test with SF-295 CNS, above 84.4 µM. Further, the TGI in the test with UO-31 renal is above 67.6 µM; with OVCAR-5 ovarian, above 100 µM; with NCI-H460 lung, above 100 µM; in the test with A498 renal it was 0.319 µM.

As to `Cc1c(CN2CCN(C(=O)[C@H](C)O)CC2)sc2c(N3CCOCC3)nc(-c3cnc(N)nc3)nc12`, the GI50 in the test on CAKI-1 renal is 0.159 µM and 0.213 µM; in the test with HCT-116 colon, 0.634 µM and 0.252 µM; in the test on M14 melanoma, 0.326 µM and 0.0936 µM; in the test on CCRF-CEM leukemia it was 1.11 µM and 0.322 µM; in the test with SF-539 CNS, 0.388 µM and 0.222 µM; with SF-295 CNS, 0.131 µM and 0.0822 µM. The GI50 in the test on UO-31 renal is 0.0579 µM and 0.053 µM; in the test on OVCAR-5 ovarian, 0.192 µM and 0.128 µM; in the test on NCI-H460 lung it was 0.12 µM and 0.108 µM; in the test on A498 renal it was 0.0542 µM and 0.0283 µM. The TGI with CAKI-1 renal was > 4.52 µM and 2.14 µM; with HCT-116 colon, above 40.1 µM; in the test on M14 melanoma, > 9.28 µM and 1.44 µM; in the test on CCRF-CEM leukemia, above 100 µM; with SF-539 CNS, 2.27 µM and 0.875 µM; with SF-295 CNS, 1.72 µM and 0.529 µM. Besides, the TGI in the test on UO-31 renal was 1.35 µM and 0.658 µM; with OVCAR-5 ovarian it was > 10 µM and 4.3 µM; in the test on NCI-H460 lung it was above 100 µM; in the test on A498 renal, 0.242 µM and 0.15 µM.

Consider `O=S(=O)(N=C1C(Cl)=C(Cl)C(=NS(=O)(=O)c2ccccc2)C(Cl)=C1Cl)c1ccccc1`, for which the GI50 with HCT-116 colon was 13.6 µM; in the test on M14 melanoma, 16.5 µM; in the test on CCRF-CEM leukemia, 14.8 µM; in the test with SF-539 CNS, 45.6 µM; in the test on SF-295 CNS, 29.5 µM; with UO-31 renal it was 18.8 µM. Also, the figures for the GI50 in the test on OVCAR-5 ovarian, with NCI-H460 lung and in the test on A498 renal were 45.2 µM, 17.4 µM and 15.9 µM, respectively. The TGI in the test on HCT-116 colon is 29.1 µM; with M14 melanoma, 34.7 µM; in the test with CCRF-CEM leukemia it was 90.9 µM; in the test on SF-539 CNS, above 100 µM; in the test with SF-295 CNS it was 93.8 µM; in the test with UO-31 renal, 48.9 µM. Further, the TGI in the test with OVCAR-5 ovarian is above 100 µM; in the test on NCI-H460 lung, 36.7 µM; with A498 renal, 50.9 µM.

For the compound `COc1ccc2c(c1)CCC1C2CC[C@@]2(C)C1CC[C@@H]2NC(=O)Cc1ccc(O)c(O)c1` (some centres undefined), the GI50 is 8.53 µM in the test with CAKI-1 renal; 3.53 µM with HCT-116 colon; 2.86 µM in the test with CCRF-CEM leukemia; 4.84 µM with SF-539 CNS; 13.4 µM in the test with SF-295 CNS; 3.56 µM with UO-31 renal. Besides, the GI50 with OVCAR-5 ovarian is 19.8 µM; in the test on NCI-H460 lung, 12.3 µM; in the test on A498 renal, 18.8 µM. The TGI in the test on CAKI-1 renal amounted to 21.7 µM; in the test with HCT-116 colon, 18.9 µM; in the test on CCRF-CEM leukemia, 17.6 µM; in the test on SF-539 CNS, 17.3 µM; in the test with SF-295 CNS it was 32.1 µM; in the test on UO-31 renal it was 15.2 µM. The TGI with OVCAR-5 ovarian was 37.7 µM; in the test with NCI-H460 lung it was 31.9 µM; in the test with A498 renal, 33.7 µM.

`NC(=S)N/N=C/c1ccc(OC(=O)COc2cc(Cl)c(Cl)cc2Cl)cn1`: the GI50 with CAKI-1 renal is 3.97 µM; in the test on HCT-116 colon, 4.25 µM; with M14 melanoma it was 2.38 µM; in the test on CCRF-CEM leukemia, 2.8 µM; in the test on SF-539 CNS it was 2.37 µM; in the test on UO-31 renal, 3.18 µM. Also, the results for the GI50 in the test on OVCAR-5 ovarian, in the test on NCI-H460 lung and in the test on A498 renal were 50.7 µM, 6.1 µM and 14.2 µM, respectively. The TGI in the test with CAKI-1 renal was above 100 µM; in the test with HCT-116 colon it was above 100 µM; with M14 melanoma it was 5.75 µM; in the test on CCRF-CEM leukemia it was above 100 µM; with SF-539 CNS, 10.3 µM; in the test on UO-31 renal, above 100 µM. Moreover, the TGI with OVCAR-5 ovarian, in the test on NCI-H460 lung and in the test on A498 renal was above 100 µM each time.
